Assay results published in a melting point compilation (Tetko et al.; mined from patent text by program, amines drawn as free bases though some values may be those of a salt).

First: ClCc1cccc2c(-c3ccccc3)nccc12
Second: Clc1cc(CCc2ccccn2)c2oc(-c3cccc4cccnc34)nc2c1
The melting point of the first is lower: 104 °C for the first, 110 to 111 °C for the second.

Compared with O=c1cnc2c(NC(CO)CO)nc(SCc3cccc(C(F)(F)F)c3F)nc2[nH]1, NC(=NCC(F)(F)F)Nc1ccnc(SCCN2C(=O)c3ccccc3C2=O)n1 is lower in melting point: 244 to 245 °C for the first, 192 to 195 °C for the second.

Compared with C=CCN(CC=C)c1ccc2[nH]c3cnc(C(=O)OCC)nc3c2c1, CCOC(=O)c1cc(-c2ccc(N)cc2)cnc1C is lower in melting point: 188 to 190 °C for the first, 137 to 138 °C for the second.

First: COc1cc(OC)nc(Oc2cc(C)nc(-c3ccccc3)c2C(=O)O)n1
Second: COc1nccc(C)c1NC(=O)c1cc(C)nc2c1c(C)nn2-c1ccccc1
The melting point of the first is higher: 277 to 284 °C for the first, 172 to 174 °C for the second.

Going from Cc1ccc(S(=O)(=O)N2CCCC2c2cccc(Cl)c2)cc1 (racemic) to Cc1ccc(-c2ccc(S(=O)(=O)Nc3onc(C)c3Br)s2)cc1, the melting point rises from 107 °C to 175 °C.

First: Oc1ccc(CCCCn2ccnc2)cc1
Second: CCNC(Cc1ccc(O)cc1)C(=O)OCC (stereo unspecified)
The melting point of the first is higher: 124 to 125 °C for the first, 87 to 89 °C for the second.

First: COc1ccc(-c2sc(NC(C)=O)nc2C)cc1S(N)(=O)=O
Second: COC(=O)C1=C(OC)c2ccccc2S(=O)(=O)N1C
The melting point of the first is higher: 342 °C for the first, 79 to 80 °C for the second.

First: CCCCCN1OCCN(c2ccc(Cl)c(Cl)c2)C1=O
Second: CN(CC(=O)O)C(=O)Nc1ccc(Cl)c(Cl)c1
The melting point of the first is lower: < 40 °C for the first, 103 to 105 °C for the second.

First: CCc1noc(-c2cn(-c3nccs3)cn2)n1
Second: CNc1nnc(SCc2ccccn2)s1
The melting point of the first is higher: 147 to 148 °C for the first, 73 to 75 °C for the second.

Compared with COC(=O)CCNc1ccccc1CNC(=O)C1Cc2ccccc2N1S(=O)(=O)c1ccc(-c2cccc(C(F)(F)F)c2)cc1 (stereo unspecified), CC(O)(C(=O)Nc1cc(S(=O)(=O)c2ccccc2)ccc1Cl)C(F)(F)F (stereo unspecified) is higher in melting point: 60 °C for the first, 79 to 80 °C for the second.

Compared with CC1(C)CC(=O)Nc2cc3nc(-c4ccc(C#N)cc4)[nH]c3cc21, CC1CCc2nc(Cl)nc(-c3ccc(F)cc3)c2C1 (stereo unspecified) is lower in melting point: 228 to 233 °C for the first, 106 to 108 °C for the second.

First: Cc1cc(Br)cc(C)c1NC(=O)Nc1ccc(-n2nc(C(F)(F)F)cc2C(F)(F)F)cc1
Second: Cc1nn(-c2cncc(F)c2)cc1-c1cccc(C(F)(F)F)n1
The melting point of the first is higher: > 230 °C for the first, 130 to 131 °C for the second.

Compared with Nc1ccc(S(=O)(=O)c2cc(C3=CCCCC3)nc(N3CCCC3)c2)cc1, NS(=O)(=O)N(c1ccccc1)c1cccc(C(c2c(O)c3c(oc2=O)CCCCCC3)C2CC2)c1 (stereo unspecified) is lower in melting point: 237 to 238 °C for the first, 90 to 95 °C for the second.

First: C=CS(=O)(=O)CCN1CCC(N2N=C(c3ccc(OC)c(OC)c3)[C@H]3CC=CC[C@H]3C2=O)CC1
Second: O=Cc1c[nH]c2ncc(-c3cccc(N4CCN(C(=O)C5CCNCC5)CC4)c3)nc12
The melting point of the first is lower: 165 to 166 °C for the first, > 300 °C for the second.

Compared with Fc1nccn1C(c1ccccc1)(c1ccccc1)c1ccccc1, COC(=O)c1ccc(-c2nnc(CSCCCCOc3ccccc3)o2)cc1 is lower in melting point: 182 to 185 °C for the first, 98 to 105 °C for the second.

Compared with CCOC(=O)c1cc2c(OCC(O)CNC(C)C)cc(C)cc2[nH]1 (stereo unspecified), O=C(O)c1cc(=O)c2cc(F)ccc2[nH]1 is higher in melting point: 163 to 165 °C for the first, 206 to 210 °C for the second.

Compared with Cc1ccc(-c2ccc(Cl)cc2Cl)c(=O)[nH]1, COc1ccc(Cl)cc1C(=O)NCCc1ccc(C(C)CC(=O)O)cc1 (stereo unspecified) is lower in melting point: 266 to 268 °C for the first, 125 to 127 °C for the second.

First: CC(=O)Oc1c(C(C)(C)C)cc2c(c1C(C)(C)C)C=CS2(=O)=O
Second: CC(C)(C)N1C(=O)c2nc(Cl)cc(N)c2C1=O
The melting point of the first is lower: 195 °C for the first, 215 to 220 °C for the second.

Compared with CC[C@@H](CO)[C@](O)(Cn1cncn1)c1ccc(F)cc1F, CSCCn1nc(-c2ccc(OCCCC(F)(F)F)cc2)oc1=O is higher in melting point: 75 to 77 °C for the first, 105 °C for the second.

First: COC(=O)c1ccc2scc(Cl)c2n1
Second: CC(=O)N1CCSc2cccc(Cl)c2C1
The melting point of the first is higher: 126 to 127 °C for the first, 79 to 81 °C for the second.

First: CCCCCCCCCN(CCC)CCC(O)(P(=O)(O)O)P(=O)(O)O
Second: CCCCCS(=O)(=O)NC(=O)CCc1cc(OCCCC)nn1Cc1ccc(C(F)(F)F)cc1Cl
The melting point of the first is lower: 45 to 47 °C for the first, 131 to 133 °C for the second.

Compared with O=C1Cc2cc(F)c(N3C(=O)C4=C(CCCC4)C3=O)cc2N1, CCOc1cc2ncc(C#N)c(Nc3ccc4c(c3)CCC4)c2cc1OCC is lower in melting point: 234 to 236 °C for the first, 85 to 88 °C for the second.

First: O=C(Nc1ccccc1)c1cccs1
Second: O=C(Nc1cccc(-c2ccnc3c(C(=O)c4cccs4)cnn23)c1)c1ccc(Cl)cc1Cl
The melting point of the first is higher: 139 to 149 °C for the first, 132 to 134 °C for the second.

Compared with Nc1nc(O)cc(NC2CC2)n1, c1ccc2c(c1)CCc1ccc(-c3nnn[nH]3)cc1S2 is lower in melting point: 229 °C for the first, 205 °C for the second.

Compared with CCc1cc2c(s1)-n1c(nnc1CNC(=O)Nc1cccc(C)c1)CN=C2c1ccccc1Cl, C[C@@H](NC(=O)[C@H](Cc1ccc(O)cc1)NC(=O)OC(C)(C)C)C(=O)NCC(=O)Oc1c(Cl)c(Cl)c(Cl)c(Cl)c1Cl is lower in melting point: 260 to 262 °C for the first, 222 °C for the second.

O=C(c1ccc(I)cc1)N1CCOCC1 gave a melting point of 116 to 117 °C.
